# Laboratory results as given in patent US8614200B2, “Compounds, compositions and methods for treating ocular conditions” (Chimerix, Inc., priority 2009, dated 2013).
# pEC50: −log10 of the molar value.
# Tests used:
# Assay type in all cases: cell-based
# HHV-6 = experiment: in vitro antiviral activity against HHV-6; conditions: for pEC50: HHV-6, in vitro
# EBV = experiment: in vitro antiviral activity against EBV
# VZV = experiment: in vitro antiviral activity against VZV
# CMV = experiment: in vitro antiviral activity against CMV; conditions: for pEC50: Human betaherpesvirus 5, CMV, in vitro
# HSV-1 = experiment: in vitro antiviral activity against HSV-1; conditions: CMX001 versus cidofovir EC50, HSV-1
pEC50 (HHV-6),"pEC50 (EBV; human gammaherpesvirus 4, EBV, in vitro)","pEC50 (VZV; Human alphaherpesvirus 3, VZV, in vitro)",pEC50 (CMV),Compound,"Enhanced Activity (HHV-6; CMX001 versus cidofovir EC50, HHV-6)","Enhanced Activity (EBV; CMX001 versus cidofovir EC50, EBV)",Enhanced Activity (HSV-1),"Enhanced Activity (VZV; CMX001 versus cidofovir EC50, VZV)","Enhanced Activity (CMV; CMX001 versus cidofovir EC50, CMV)"
5.27,< 3.97,6.30,6.40,"Nc1ccn(C[C@@H](CO)OCP(=O)(O)O)c(=O)n1 [Cidofovir, cidofovir, reference compound]",–,–,–,–,–
8.15,–,–,9.00,CCCCCCCCCCCCCCCCOCCCOP(=O)(O)CO[C@H](CO)Cn1ccc(N)nc1=O [CMX001],771,>2700,92,125,400
